Species on record: Rattus norvegicus
Assay: DrugMatrix - Regimen: Daily Repeat
Assay type: toxicity, organism-based, Sprague-Dawley
Set-up: regimen Daily Repeat, gender Male, age 6-8 weeks
Conditions: in vivo, po, route oral GAVAGE, vehicle .5 % CMC; for ABSOLUTE BASOPHIL / ABSOLUTE EOSINOPHIL / ABSOLUTE LYMPHOCYTE / ABSOLUTE MONOCYTE / ABSOLUTE SEGMENTED NEUTROPHIL / BASOPHIL / EOSINOPHIL / ERYTHROCYTE COUNT / HEMATOCRIT / HEMOGLOBIN / LEUKOCYTE COUNT / LYMPHOCYTE / MEAN CORPUSCULAR HEMOGLOBIN / MEAN CORPUSCULAR HEMOGLOBIN CONCENTRATION / MEAN CORPUSCULAR VOLUME / MONOCYTE / NEUTROPHIL / NUCLEATED RED BLOOD CELLS / PLATELET COUNT: tissue Blood; for ALANINE AMINOTRANSFERASE / ALBUMIN / ALKALINE PHOSPHATASE / ASPARTATE AMINOTRANSFERASE / BLOOD UREA NITROGEN / CARBON DIOXIDE / CHLORIDE / CHOLESTEROL / CREATINE PHOSPHOKINASE / CREATININE / GLUCOSE / LACTATE DEHYDROGENASE / LIPASE / PHOSPHORUS / POTASSIUM / SODIUM / TOTAL BILIRUBIN / TOTAL PROTEIN / URIC ACID: tissue Plasma
[1] = 0.3 mg/kg, 72 h, dose level Low, time 3 day
[2] = 0.3 mg/kg, 120 h, dose level Low, time 5 day
[3] = 100 mg/kg, 72 h, dose level High, time 3 day
[4] = 100 mg/kg, 120 h, dose level High, time 5 day

CN1[C@@H]2CC[C@H]1C[C@@H](OC(=O)c1c[nH]c3ccccc13)C2 [TROPISETRON]
ABSOLUTE BASOPHIL [1]: 0 CELLS/uL
ABSOLUTE EOSINOPHIL [1]: 256.33 CELLS/uL
ABSOLUTE LYMPHOCYTE [1]: 11976 CELLS/uL
ABSOLUTE MONOCYTE [1]: 96 CELLS/uL
ABSOLUTE SEGMENTED NEUTROPHIL [1]: 905 CELLS/uL
BASOPHIL [1]: 0%
EOSINOPHIL [1]: 2%
ERYTHROCYTE COUNT [1]: 5.89 x10E6/uL
HEMATOCRIT [1]: 37.4%
HEMOGLOBIN [1]: 14.07 G/DL
LEUKOCYTE COUNT [1]: 13.23 x10E3/uL
LYMPHOCYTE [1]: 90.67%
MEAN CORPUSCULAR HEMOGLOBIN [1]: 23.87 pg
MEAN CORPUSCULAR HEMOGLOBIN CONCENTRATION [1]: 37.63 G/DL
MEAN CORPUSCULAR VOLUME [1]: 63.5 fL
MONOCYTE [1]: 0.67%
NEUTROPHIL [1]: 6.67%
NUCLEATED RED BLOOD CELLS [1]: 0 /100WBC
PLATELET COUNT [1]: 1325.33 x10E3/uL
ALANINE AMINOTRANSFERASE [1]: 46.33 u/L
ALBUMIN [1]: 4.43 G/DL
ALKALINE PHOSPHATASE [1]: 408.67 u/L
ASPARTATE AMINOTRANSFERASE [1]: 87.33 u/L
BLOOD UREA NITROGEN [1]: 13 mg/dL
CARBON DIOXIDE [1]: 26 mmol/L
CHLORIDE [1]: 106 MEQ/L
CHOLESTEROL [1]: 71.33 mg/dL
CREATINE PHOSPHOKINASE [1]: 621.67 u/L
CREATININE [1]: 0.21 mg/dL
GLUCOSE [1]: 160.67 mg/dL
LACTATE DEHYDROGENASE [1]: 123.67 u/L
LIPASE [1]: 9 u/L
PHOSPHORUS [1]: 14.4 mg/dL
POTASSIUM [1]: 6.64 MEQ/L
SODIUM [1]: 147.37 MEQ/L
TOTAL BILIRUBIN [1]: 0.2 mg/dL
TOTAL PROTEIN [1]: 6.17 G/DL
URIC ACID [1]: 2.47 mg/dL
ABSOLUTE BASOPHIL [2]: 0 CELLS/uL
ABSOLUTE EOSINOPHIL [2]: 244.67 CELLS/uL
ABSOLUTE LYMPHOCYTE [2]: 13752.67 CELLS/uL
ABSOLUTE MONOCYTE [2]: 213.33 CELLS/uL
ABSOLUTE SEGMENTED NEUTROPHIL [2]: 1056 CELLS/uL
BASOPHIL [2]: 0%
EOSINOPHIL [2]: 1.67%
ERYTHROCYTE COUNT [2]: 5.41 x10E6/uL
HEMATOCRIT [2]: 34.5%
HEMOGLOBIN [2]: 13.27 G/DL
LEUKOCYTE COUNT [2]: 15.27 x10E3/uL
LYMPHOCYTE [2]: 90.33%
MEAN CORPUSCULAR HEMOGLOBIN [2]: 24.57 pg
MEAN CORPUSCULAR HEMOGLOBIN CONCENTRATION [2]: 38.43 G/DL
MEAN CORPUSCULAR VOLUME [2]: 63.8 fL
MONOCYTE [2]: 1.33%
NEUTROPHIL [2]: 6.67%
NUCLEATED RED BLOOD CELLS [2]: 0 /100WBC
PLATELET COUNT [2]: 1293.33 x10E3/uL
ALANINE AMINOTRANSFERASE [2]: 47.33 u/L
ALBUMIN [2]: 4.13 G/DL
ALKALINE PHOSPHATASE [2]: 386.33 u/L
ASPARTATE AMINOTRANSFERASE [2]: 80 u/L
BLOOD UREA NITROGEN [2]: 17.67 mg/dL
CARBON DIOXIDE [2]: 25.33 mmol/L
CHLORIDE [2]: 106.67 MEQ/L
CHOLESTEROL [2]: 71.33 mg/dL
CREATINE PHOSPHOKINASE [2]: 310 u/L
CREATININE [2]: 0.21 mg/dL
GLUCOSE [2]: 162 mg/dL
LACTATE DEHYDROGENASE [2]: 329 u/L
LIPASE [2]: 9 u/L
PHOSPHORUS [2]: 13.37 mg/dL
POTASSIUM [2]: 6 MEQ/L
SODIUM [2]: 145.27 MEQ/L
TOTAL BILIRUBIN [2]: 0.27 mg/dL
TOTAL PROTEIN [2]: 6.37 G/DL
URIC ACID [2]: 1.77 mg/dL
ABSOLUTE BASOPHIL [3]: 0 CELLS/uL
ABSOLUTE EOSINOPHIL [3]: 0 CELLS/uL
ABSOLUTE LYMPHOCYTE [3]: 8279 CELLS/uL
ABSOLUTE MONOCYTE [3]: 180 CELLS/uL
ABSOLUTE SEGMENTED NEUTROPHIL [3]: 707.67 CELLS/uL
BASOPHIL [3]: 0%
EOSINOPHIL [3]: 0%
ERYTHROCYTE COUNT [3]: 5.38 x10E6/uL
HEMATOCRIT [3]: 33.5%
HEMOGLOBIN [3]: 12.6 G/DL
LEUKOCYTE COUNT [3]: 9.17 x10E3/uL
LYMPHOCYTE [3]: 90.33%
MEAN CORPUSCULAR HEMOGLOBIN [3]: 23.47 pg
MEAN CORPUSCULAR HEMOGLOBIN CONCENTRATION [3]: 37.6 G/DL
MEAN CORPUSCULAR VOLUME [3]: 62.3 fL
MONOCYTE [3]: 2%
NEUTROPHIL [3]: 7.67%
NUCLEATED RED BLOOD CELLS [3]: 0 /100WBC
PLATELET COUNT [3]: 1392.33 x10E3/uL
ALANINE AMINOTRANSFERASE [3]: 63.67 u/L
ALBUMIN [3]: 4.3 G/DL
ALKALINE PHOSPHATASE [3]: 429.67 u/L
ASPARTATE AMINOTRANSFERASE [3]: 69.33 u/L
BLOOD UREA NITROGEN [3]: 14.33 mg/dL
CARBON DIOXIDE [3]: 27.67 mmol/L
CHLORIDE [3]: 105.67 MEQ/L
CHOLESTEROL [3]: 54.33 mg/dL
CREATINE PHOSPHOKINASE [3]: 189.33 u/L
CREATININE [3]: 0.3 mg/dL
GLUCOSE [3]: 155.33 mg/dL
LACTATE DEHYDROGENASE [3]: 122.67 u/L
LIPASE [3]: 8.33 u/L
PHOSPHORUS [3]: 13.03 mg/dL
POTASSIUM [3]: 5.65 MEQ/L
SODIUM [3]: 149.97 MEQ/L
TOTAL BILIRUBIN [3]: 0.2 mg/dL
TOTAL PROTEIN [3]: 5.87 G/DL
URIC ACID [3]: 1.2 mg/dL
ABSOLUTE BASOPHIL [4]: 0 CELLS/uL
ABSOLUTE EOSINOPHIL [4]: 100.67 CELLS/uL
ABSOLUTE LYMPHOCYTE [4]: 14254 CELLS/uL
ABSOLUTE MONOCYTE [4]: 107 CELLS/uL
ABSOLUTE SEGMENTED NEUTROPHIL [4]: 1271.67 CELLS/uL
BASOPHIL [4]: 0%
EOSINOPHIL [4]: 0.67%
ERYTHROCYTE COUNT [4]: 5.79 x10E6/uL
HEMATOCRIT [4]: 36.33%
HEMOGLOBIN [4]: 13.6 G/DL
LEUKOCYTE COUNT [4]: 15.73 x10E3/uL
LYMPHOCYTE [4]: 90.67%
MEAN CORPUSCULAR HEMOGLOBIN [4]: 23.5 pg
MEAN CORPUSCULAR HEMOGLOBIN CONCENTRATION [4]: 37.43 G/DL
MEAN CORPUSCULAR VOLUME [4]: 62.73 fL
MONOCYTE [4]: 0.67%
NEUTROPHIL [4]: 8%
NUCLEATED RED BLOOD CELLS [4]: 0 /100WBC
PLATELET COUNT [4]: 1276.33 x10E3/uL
ALANINE AMINOTRANSFERASE [4]: 63.67 u/L
ALBUMIN [4]: 4.2 G/DL
ALKALINE PHOSPHATASE [4]: 501 u/L
ASPARTATE AMINOTRANSFERASE [4]: 81.67 u/L
BLOOD UREA NITROGEN [4]: 16 mg/dL
CARBON DIOXIDE [4]: 26.33 mmol/L
CHLORIDE [4]: 105.33 MEQ/L
CHOLESTEROL [4]: 59.33 mg/dL
CREATINE PHOSPHOKINASE [4]: 219 u/L
CREATININE [4]: 0.25 mg/dL
GLUCOSE [4]: 178 mg/dL
LACTATE DEHYDROGENASE [4]: 91 u/L
LIPASE [4]: 9 u/L
PHOSPHORUS [4]: 15.37 mg/dL
POTASSIUM [4]: 5.6 MEQ/L
SODIUM [4]: 146.8 MEQ/L
TOTAL BILIRUBIN [4]: 0.17 mg/dL
TOTAL PROTEIN [4]: 6.13 G/DL
URIC ACID [4]: 2.13 mg/dL
